Measured values taken from patent publication US20240002936A1, “USE OF BRAIN ORGANOIDS AND SINGLE CELL GENOMICS TO UNDERSTAND AND TREAT NEURODEVELOPMENTAL AND NEUROPSYCHIATRIC DISORDERS” (President and Fellows of Harvard College, priority 2020, published 2024).

Columns and labels:
[1] = test system: PGP1 SUV420H1 control and mutant organoids; experiment: Calcium imaging of spontaneous neuronal activity in intact brain organoids; type: cell-based, human; details: 20 μM NBQX
human brain organoids = type: cell-based

| Compound | calcium activity after blockade of excitatory synapses with NBQX, SUV420H1 mutant organoids ([1]; PGP1 SUV420H1+/- mutant organoids) | calcium activity after blockade of excitatory synapses with NBQX, control organoids ([1]; PGP1 control organoids) | network bursting upon bath application of NBQX ([1]; four month organoids (128 d.i.v.)) | trains of action potentials composing network bursting, sensitivity to TTX (human brain organoids) |
| --- | --- | --- | --- | --- |
| NS(=O)(=O)c1cccc2c1c([N+](=O)[O-])cc1[nH]c(=O)c(=O)[nH]c12 [NBQX, 2,3-dioxo-6-nitro-1,2,3,4-tetrahydrobenzo[f]quinoxaline-7-sulfonamide] | no calcium transients | residual uncorrelated activity | abolished |  |
| NC1=N[C@H](O)[C@H]2[C@H]3O[C@]4(O)O[C@@H]([C@@H](O)[C@@]2(N1)[C@@H]4O)[C@]3(O)CO [TTX, tetrodotoxin] |  |  |  | sensitive |
